The values below come from ChEMBL document CHEMBL1201862, “PubChem BioAssay data set” (2004).

Some test systems named below: SF-539; HCT-15; RXF 393; SK-MEL-28; ACHN; SF-295; NCI-H522; M14; K562; IGROV-1; SNB-19; NCI-H460; OVCAR-8; TK-10; HOP-92; OVCAR-5; SR; HL-60; SN12C; CCRF-CEM.
Holding throughout (assay): growth of human tumour cells (NCI), 48 h

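Five concentrations, 48 hours, 96-well plates. GI50: concentration for 50% inhibition of growth.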 Activity calls are given as the source filed them. Cut-off read from the data, not from the text of the source: active = GI50 up to about 1.1 µM and inactive = higher.

As to `Clc1ccc(Cc2nc3cc(Cl)c(Cl)cc3n2CC2CCCN3CCCCC23)cc1Cl` (stereo not given), the GI50 is 1.98 µM (inactive) with SF-539; 4.76 µM in the experiment on HCT-15; 7.53 µM (inactive) in the experiment with RXF 393; 2.99 µM (inactive) in the experiment with SK-MEL-28; 4.47 µM (inactive) in the experiment with ACHN; 3.37 µM (inactive) with SF-295. In addition, the GI50 with NCI-H522 was 1.74 µM (inactive); in the experiment with M14, 2.01 µM (inactive); in the experiment with K562, 3.26 µM (inactive); in the experiment on IGROV-1, 3.89 µM (inactive); with SNB-19, 2.9 µM (inactive); with NCI-H460, 3.1 µM (inactive). For the same compound, the GI50 was 6.32 µM (inactive) in the experiment on OVCAR-8; 6.05 µM (inactive) with TK-10; 5.38 µM (inactive) with HOP-92; 3.13 µM (inactive) with OVCAR-5; 2.78 µM (inactive) in the experiment with SR; 2.5 µM (inactive) in the experiment on HL-60. In the experiment with SN12C, the GI50 was 4.13 µM (inactive).
As to `O=C1Cc2ccccc2N1c1c(Cl)cccc1Cl`, the GI50 was 81.3 µM (inactive) in the experiment on SF-539; 46.9 µM with HCT-15; 54 µM (inactive) in the experiment with SK-MEL-28; 70.1 µM (inactive) in the experiment with ACHN; 38.4 µM (inactive) with SF-295; 24.6 µM (inactive) in the experiment on NCI-H522. The GI50 is 71 µM (inactive) with M14; 21.3 µM (inactive) in the experiment with K562; 43.4 µM (inactive) in the experiment with IGROV-1; 32.9 µM (inactive) in the experiment on CCRF-CEM; 79.1 µM (inactive) in the experiment on SNB-19; 97.5 µM (inactive) in the experiment with NCI-H460. In addition, the GI50 is 93.3 µM (inactive) in the experiment with OVCAR-8; 98.4 µM (inactive) in the experiment on TK-10; 50.2 µM (inactive) in the experiment on HOP-92; > 100 µM (inactive) in the experiment on OVCAR-5; 25.4 µM (inactive) with SR; 15.3 µM (inactive) in the experiment on HL-60. Moreover, in the experiment with SN12C, the GI50 is 89.1 µM (inactive).
In the case of `CC(C)n1c(=O)n(-c2ccccc2)n(C(C)(C)C)c1=O`, the GI50 with SF-539 was > 100 µM (inactive); with HCT-15 it was more than 100 µM; with RXF 393 it was > 100 µM (inactive); in the experiment with SK-MEL-28 it was > 100 µM (inactive); in the experiment with ACHN, > 100 µM (inactive); with SF-295, > 100 µM (inactive). Further, the GI50 in the experiment with M14, in the experiment with K562, in the experiment with IGROV-1, with CCRF-CEM, in the experiment with SNB-19 and in the experiment with NCI-H460 was > 100 µM (inactive) each time. The GI50 with OVCAR-8 is > 100 µM (inactive); in the experiment on TK-10 it was > 100 µM (inactive); in the experiment with HOP-92, > 100 µM (inactive); with OVCAR-5 it was > 100 µM (inactive); in the experiment on SR, 58.5 µM (inactive); in the experiment on HL-60 it was 47.4 µM (inactive). In addition, in the experiment on SN12C, the GI50 was > 100 µM (inactive).
On to `COC(=O)/C(C#N)=C(\N)c1c(C)c2ccccc2oc1=N`, for which the GI50 in the experiment on SF-539 was > 100 µM (inactive); with HCT-15 it was more than 100 µM; in the experiment with RXF 393, > 100 µM (inactive); with SK-MEL-28, > 100 µM (inactive); in the experiment on SF-295, > 100 µM (inactive); in the experiment on NCI-H522 it was > 100 µM (inactive). Further, the GI50 in the experiment on K562, in the experiment with IGROV-1, with SNB-19, in the experiment with NCI-H460, with TK-10 and in the experiment with HOP-92 was > 100 µM (inactive) each time. For the same compound, the GI50 in the experiment with OVCAR-5, in the experiment on SR, with HL-60 and in the experiment with SN12C was > 100 µM (inactive) each time.
For `O=C1OCc2c1cc1cc3c(cc1c2-c1ccc2c(c1)OCO2)OCO3.O=C1OCc2cc3cc4c(cc3c(-c3ccc5c(c3)OCO5)c21)OCO4`, the GI50 with HCT-15 is 6.18 µM; in the experiment on RXF 393, 5.73 µM (inactive); in the experiment on SK-MEL-28, 45.4 µM (inactive); in the experiment with SF-295 it was 2.41 µM (inactive); in the experiment with M14 it was 4.47 µM (inactive); in the experiment on K562, 0.979 µM (active). Moreover, the GI50 was 8.55 µM (inactive) in the experiment with IGROV-1; 3.34 µM (inactive) in the experiment on CCRF-CEM; 30 µM (inactive) in the experiment on SNB-19; 5.79 µM (inactive) in the experiment with NCI-H460; 13.5 µM (inactive) in the experiment with OVCAR-8; 14.4 µM (inactive) in the experiment on TK-10. Further, the GI50 is 13.8 µM (inactive) in the experiment on HOP-92; 21 µM (inactive) in the experiment with OVCAR-5; 5.7 µM (inactive) in the experiment with SR; 34.8 µM (inactive) with HL-60; 15 µM (inactive) with SN12C.
`N=C(N)SCCN1CCCCC1`: the GI50 was 35.7 µM (inactive) in the experiment with SF-539; 25.6 µM with HCT-15; 16.1 µM (inactive) with RXF 393; 28.5 µM (inactive) with SK-MEL-28; 25.6 µM (inactive) with ACHN; > 100 µM (inactive) in the experiment with SF-295. In addition, the GI50 in the experiment with NCI-H522 was 7.5 µM (inactive); with M14, 19.9 µM (inactive); in the experiment on K562 it was 20 µM (inactive); in the experiment with IGROV-1, 36.6 µM (inactive); in the experiment with NCI-H460 it was 32.7 µM (inactive); in the experiment on OVCAR-8, 28.6 µM (inactive). Moreover, the GI50 with TK-10 is 43.7 µM (inactive); in the experiment on HOP-92, 27.9 µM (inactive); in the experiment on OVCAR-5 it was 86.1 µM (inactive); with SR it was 21 µM (inactive); with HL-60, 21.2 µM (inactive); in the experiment with SN12C it was 26.3 µM (inactive).
As for `CC1CCN(c2cc(-c3cc4ccccc4o3)oc(=O)c2C#N)CC1`, the GI50 is 89.1 µM (inactive) with SF-539; more than 100 µM in the experiment with HCT-15; 45.7 µM (inactive) with RXF 393; > 100 µM (inactive) with SK-MEL-28; > 100 µM (inactive) in the experiment with ACHN; 68.9 µM (inactive) in the experiment on SF-295. In addition, the GI50 in the experiment on M14, in the experiment with K562, with IGROV-1, in the experiment with CCRF-CEM, with SNB-19 and in the experiment with NCI-H460 was > 100 µM (inactive) each time. For the same compound, the GI50 was > 100 µM (inactive) in the experiment on OVCAR-8; > 100 µM (inactive) with TK-10; 5.9 µM (inactive) with HOP-92; > 100 µM (inactive) in the experiment with OVCAR-5; > 100 µM (inactive) with SR; 65.8 µM (inactive) in the experiment with HL-60. In addition, the GI50 in the experiment with SN12C was > 100 µM (inactive).
Regarding `C/C(=N\NC(=S)Nc1ccc(C(=O)O)cc1)c1ccccn1`, the GI50 was 18.3 µM (inactive) with SF-539; 26.5 µM in the experiment with HCT-15; 35 µM (inactive) in the experiment with RXF 393; 44 µM (inactive) in the experiment with SK-MEL-28; 16.7 µM (inactive) in the experiment with ACHN; 40.4 µM (inactive) with SF-295. Further, the GI50 in the experiment with M14 is 15.1 µM (inactive); with K562, 40.1 µM (inactive); with IGROV-1, 31.8 µM (inactive); with CCRF-CEM it was 17.4 µM (inactive); in the experiment with NCI-H460 it was 21.6 µM (inactive); in the experiment on OVCAR-8, 16 µM (inactive). Also, the GI50 in the experiment with TK-10 is 30.6 µM (inactive); in the experiment on HOP-92 it was 43.6 µM (inactive); in the experiment with OVCAR-5 it was 21.3 µM (inactive); in the experiment on SR, 12.2 µM (inactive); in the experiment with HL-60, 20.7 µM (inactive); with SN12C, 19.7 µM (inactive).
For `CN1C(=O)C2(C)SC1(c1ccccc1)C1C(=O)N(c3ccccc3)C(=O)C12` (stereo not given), the GI50 in the experiment on SF-539 is > 100 µM (inactive); with HCT-15, 66.4 µM; in the experiment with RXF 393 it was > 100 µM (inactive); in the experiment with SK-MEL-28, > 100 µM (inactive); with ACHN it was 91.8 µM (inactive); in the experiment with SF-295 it was 54.6 µM (inactive). The GI50 in the experiment with NCI-H522 was 96.4 µM (inactive); in the experiment on M14, > 100 µM (inactive); in the experiment on K562, 57.4 µM (inactive); with IGROV-1 it was 48 µM (inactive); with SNB-19, > 100 µM (inactive); in the experiment with OVCAR-8, > 100 µM (inactive). The GI50 is 57.4 µM (inactive) in the experiment on TK-10; 36.6 µM (inactive) in the experiment on HOP-92; > 100 µM (inactive) in the experiment on OVCAR-5; 64.1 µM (inactive) with SR; 47.1 µM (inactive) in the experiment on HL-60; > 100 µM (inactive) in the experiment on SN12C.
Consider `COc1ccc(NC(=O)C(=O)Cc2ccc([N+](=O)[O-])c([N+](=O)[O-])c2CC(=O)C(=O)Nc2ccc(OC)cc2OC)c(OC)c1`, for which the GI50 in the experiment on HCT-15 is more than 100 µM; in the experiment on RXF 393 it was > 100 µM (inactive); in the experiment with SK-MEL-28, > 100 µM (inactive); in the experiment with ACHN, > 100 µM (inactive); with SF-295, > 100 µM (inactive); in the experiment on NCI-H522, 58.6 µM (inactive). Besides, the GI50 in the experiment with M14, in the experiment on K562, in the experiment on IGROV-1, with CCRF-CEM, in the experiment on SNB-19 and in the experiment with NCI-H460 was > 100 µM (inactive) each time. Besides, the GI50 with OVCAR-8, in the experiment on TK-10, in the experiment on HOP-92, in the experiment with OVCAR-5, in the experiment with SR and with HL-60 was > 100 µM (inactive) in each case. Also, in the experiment with SN12C, the GI50 is > 100 µM (inactive).
As to `Cc1ccc(N2C(=O)N(c3ccc(C)cc3)C3(SC=NN3C)C2=O)cc1` (stereo not given), the GI50 with SF-539 is > 100 µM (inactive); in the experiment on RXF 393, 59.6 µM (inactive); with SK-MEL-28, > 100 µM (inactive); with ACHN, 65.6 µM (inactive); in the experiment on SF-295, 47.8 µM (inactive); in the experiment with NCI-H522, 37.8 µM (inactive). In addition, the GI50 in the experiment on M14 was 69.8 µM (inactive); in the experiment on K562 it was 40.6 µM (inactive); with IGROV-1, > 100 µM (inactive); with CCRF-CEM, 40.6 µM (inactive); in the experiment on SNB-19, > 100 µM (inactive); in the experiment with NCI-H460 it was > 100 µM (inactive). Also, the GI50 in the experiment on OVCAR-8 was > 100 µM (inactive); with TK-10, 66.4 µM (inactive); in the experiment on HOP-92, > 100 µM (inactive); with SR, 58.3 µM (inactive); in the experiment on HL-60 it was 22.6 µM (inactive); in the experiment with SN12C, > 100 µM (inactive).
